Measurements from article PMC4823954, “From fighting depression to conquering tumors: a novel tricyclic thiazepine compound as a tubulin polymerization inhibitor” (Cell Death & Disease, 2016).

Legend:
Assay in all cases: KINOMEscan
Format in all cases: binding
Conditions in all cases: read-out: % Ctrl
[1] = target: T1, SLK (Homo sapiens, UniProt Q9H2G2)
T1 construct: purchased DiscoveRx KINOMEscan
How it was run: (§1)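 Competition binding panel of 442 non-mutant kinases: test compound at 5 and 10 μM competed with an active-site-directed ligand for 1 h with shaking. Bound kinase was eluted with 0.5 μM ligand and quantified by qPCR; %Ctrl = (compound − positive control)/(DMSO − positive control) × 100, lower meaning tighter binding.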

[2] = target: T2, RET(V804M) (Homo sapiens, UniProt P07949, V804M)
T2 construct: purchased DiscoveRx KINOMEscan

[3] = target: T3, FAK (Homo sapiens, UniProt Q05397)
T3 construct: purchased DiscoveRx KINOMEscan
How it was run: as §1

[4] = target: T4, AKT2 (Homo sapiens, UniProt P31751)
T4 construct: purchased DiscoveRx KINOMEscan
How it was run: as §1

[5] = target: T5, SYK (Homo sapiens, UniProt P43405)
T5 construct: purchased DiscoveRx KINOMEscan
How it was run: as §1

[6] = target: T6, JAK2(JH1domain-catalytic) (Homo sapiens, UniProt O60674)
T6 construct: JAK2(JH1domain-catalytic); purchased DiscoveRx KINOMEscan
T6 sequence (O60674 840-1132 limits assumed): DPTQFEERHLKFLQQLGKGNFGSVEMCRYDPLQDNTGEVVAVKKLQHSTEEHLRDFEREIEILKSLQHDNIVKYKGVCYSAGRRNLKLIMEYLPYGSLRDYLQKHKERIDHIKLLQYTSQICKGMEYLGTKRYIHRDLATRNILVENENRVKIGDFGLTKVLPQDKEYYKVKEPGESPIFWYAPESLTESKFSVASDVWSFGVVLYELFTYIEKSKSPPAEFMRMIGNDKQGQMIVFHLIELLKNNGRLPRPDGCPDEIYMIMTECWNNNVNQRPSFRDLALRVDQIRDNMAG
How it was run: as §1

[7] = target: T7, SGK3 (Homo sapiens, UniProt Q96BR1)
T7 construct: purchased DiscoveRx KINOMEscan
How it was run: as §1

[8] = target: T8, EPHA4 (Homo sapiens, UniProt P54764)
T8 construct: purchased DiscoveRx KINOMEscan
How it was run: as §1

[9] = target: T9, IRAK4 (Homo sapiens, UniProt Q9NWZ3)
T9 construct: purchased DiscoveRx KINOMEscan
T9 sequence (Q9NWZ3 whole entry): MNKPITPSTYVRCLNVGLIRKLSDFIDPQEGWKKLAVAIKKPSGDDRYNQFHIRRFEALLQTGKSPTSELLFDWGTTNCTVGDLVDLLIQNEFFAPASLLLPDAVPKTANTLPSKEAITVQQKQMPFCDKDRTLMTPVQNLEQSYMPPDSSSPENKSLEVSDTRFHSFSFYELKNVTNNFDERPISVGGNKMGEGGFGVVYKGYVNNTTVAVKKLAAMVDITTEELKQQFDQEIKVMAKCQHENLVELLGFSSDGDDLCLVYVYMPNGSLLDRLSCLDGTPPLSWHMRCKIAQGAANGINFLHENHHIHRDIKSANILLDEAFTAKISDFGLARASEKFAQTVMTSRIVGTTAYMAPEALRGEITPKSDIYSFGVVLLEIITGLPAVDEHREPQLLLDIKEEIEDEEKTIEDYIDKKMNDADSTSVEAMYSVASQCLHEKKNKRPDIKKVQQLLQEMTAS
How it was run: as §1

[10] = target: T10, DAPK1 (Homo sapiens, UniProt P53355)
T10 construct: purchased DiscoveRx KINOMEscan
T10 sequence (P53355 whole entry): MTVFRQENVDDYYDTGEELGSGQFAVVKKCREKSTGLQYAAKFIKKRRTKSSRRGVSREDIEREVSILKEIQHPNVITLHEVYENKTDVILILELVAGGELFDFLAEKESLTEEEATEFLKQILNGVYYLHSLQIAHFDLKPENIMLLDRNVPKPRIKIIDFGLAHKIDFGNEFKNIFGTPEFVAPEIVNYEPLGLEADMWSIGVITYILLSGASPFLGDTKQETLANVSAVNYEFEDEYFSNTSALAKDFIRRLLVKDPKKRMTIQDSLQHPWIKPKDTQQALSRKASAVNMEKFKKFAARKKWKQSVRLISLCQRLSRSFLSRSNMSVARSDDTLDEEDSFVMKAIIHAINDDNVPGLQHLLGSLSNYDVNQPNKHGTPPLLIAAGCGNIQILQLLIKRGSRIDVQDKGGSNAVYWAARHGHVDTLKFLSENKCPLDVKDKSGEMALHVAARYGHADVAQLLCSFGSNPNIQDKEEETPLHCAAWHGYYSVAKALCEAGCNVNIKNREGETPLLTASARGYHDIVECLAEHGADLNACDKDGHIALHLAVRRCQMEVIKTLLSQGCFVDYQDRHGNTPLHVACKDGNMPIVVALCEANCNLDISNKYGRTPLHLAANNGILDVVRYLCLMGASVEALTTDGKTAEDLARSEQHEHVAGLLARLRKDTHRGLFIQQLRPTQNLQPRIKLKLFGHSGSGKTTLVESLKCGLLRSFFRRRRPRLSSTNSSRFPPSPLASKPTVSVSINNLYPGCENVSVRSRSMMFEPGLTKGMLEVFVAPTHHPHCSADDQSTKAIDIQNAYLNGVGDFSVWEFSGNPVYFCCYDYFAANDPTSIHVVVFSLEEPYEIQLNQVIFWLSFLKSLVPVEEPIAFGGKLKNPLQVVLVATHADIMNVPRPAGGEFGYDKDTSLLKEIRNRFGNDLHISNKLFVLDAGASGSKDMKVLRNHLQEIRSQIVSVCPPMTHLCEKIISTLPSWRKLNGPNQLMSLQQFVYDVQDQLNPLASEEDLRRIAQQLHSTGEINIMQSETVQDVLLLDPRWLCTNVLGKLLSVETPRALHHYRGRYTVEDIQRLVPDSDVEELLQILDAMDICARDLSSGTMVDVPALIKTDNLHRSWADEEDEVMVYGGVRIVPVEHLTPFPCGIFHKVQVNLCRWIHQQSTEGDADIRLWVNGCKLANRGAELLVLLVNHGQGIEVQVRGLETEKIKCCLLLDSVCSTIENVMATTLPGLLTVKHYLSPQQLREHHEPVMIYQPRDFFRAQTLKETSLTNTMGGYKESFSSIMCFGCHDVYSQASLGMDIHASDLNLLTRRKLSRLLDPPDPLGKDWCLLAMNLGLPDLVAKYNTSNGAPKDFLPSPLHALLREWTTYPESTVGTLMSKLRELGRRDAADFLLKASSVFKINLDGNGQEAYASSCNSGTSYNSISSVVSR
How it was run: as §1

[11] = target: T11, ASK2 (Homo sapiens, UniProt O95382)
T11 construct: purchased DiscoveRx KINOMEscan
How it was run: as §1

[12] = target: T12, MAP4K5 (Homo sapiens, UniProt Q9Y4K4)
T12 construct: purchased DiscoveRx KINOMEscan
How it was run: as §1

[13] = target: T13, PRKCH (Homo sapiens, UniProt P24723)
T13 construct: purchased DiscoveRx KINOMEscan
How it was run: as §1

[14] = target: T14, MST4 (Homo sapiens, UniProt Q9P289)
T14 construct: purchased DiscoveRx KINOMEscan
How it was run: as §1

[15] = target: T15, MLK3 (Homo sapiens, UniProt Q16584)
T15 construct: purchased DiscoveRx KINOMEscan
How it was run: as §1

[16] = target: T16, GRK4 (Homo sapiens, UniProt P32298)
T16 construct: purchased DiscoveRx KINOMEscan
How it was run: as §1

[17] = target: T17, MAPKAPK2 (Homo sapiens, UniProt P49137)
T17 construct: purchased DiscoveRx KINOMEscan
How it was run: as §1

[18] = target: T18, CSNK1G1 (Homo sapiens, UniProt Q9HCP0)
T18 construct: purchased DiscoveRx KINOMEscan
T18 sequence (Q9HCP0 whole entry): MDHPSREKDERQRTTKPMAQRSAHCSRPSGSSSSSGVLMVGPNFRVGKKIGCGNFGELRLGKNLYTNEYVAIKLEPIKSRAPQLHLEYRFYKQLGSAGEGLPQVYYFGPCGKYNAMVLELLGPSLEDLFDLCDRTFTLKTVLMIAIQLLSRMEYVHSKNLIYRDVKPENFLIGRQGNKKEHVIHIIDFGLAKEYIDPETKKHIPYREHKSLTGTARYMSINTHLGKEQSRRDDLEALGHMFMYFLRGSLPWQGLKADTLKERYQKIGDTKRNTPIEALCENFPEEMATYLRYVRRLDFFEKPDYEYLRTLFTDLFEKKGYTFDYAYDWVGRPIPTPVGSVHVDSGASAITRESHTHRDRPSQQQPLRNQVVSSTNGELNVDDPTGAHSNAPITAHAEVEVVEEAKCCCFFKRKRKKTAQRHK
How it was run: as §1

[19] = target: T19, YSK1 (Homo sapiens, UniProt O00506)
T19 construct: purchased DiscoveRx KINOMEscan
T19 sequence (O00506 whole entry): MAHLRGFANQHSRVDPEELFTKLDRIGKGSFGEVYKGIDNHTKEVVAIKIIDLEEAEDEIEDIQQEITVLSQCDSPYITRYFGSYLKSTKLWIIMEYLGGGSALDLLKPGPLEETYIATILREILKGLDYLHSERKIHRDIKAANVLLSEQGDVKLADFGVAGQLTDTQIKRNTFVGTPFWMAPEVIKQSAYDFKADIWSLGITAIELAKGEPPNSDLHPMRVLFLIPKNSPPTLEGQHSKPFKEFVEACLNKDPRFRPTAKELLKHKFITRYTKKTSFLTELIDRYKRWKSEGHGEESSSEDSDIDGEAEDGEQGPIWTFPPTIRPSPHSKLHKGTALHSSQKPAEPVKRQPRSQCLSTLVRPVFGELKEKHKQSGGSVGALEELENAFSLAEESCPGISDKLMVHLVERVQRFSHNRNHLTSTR
How it was run: as §1

[20] = target: T20, PAK6 (Homo sapiens, UniProt Q9NQU5)
T20 construct: purchased DiscoveRx KINOMEscan
How it was run: as §1

[21] = target: T21, DRAK1 (Homo sapiens, UniProt Q9UEE5)
T21 construct: purchased DiscoveRx KINOMEscan
How it was run: as §1

[22] = target: T22, PIK3CA(I800L) (Homo sapiens, UniProt P42336, I800L)
T22 construct: purchased DiscoveRx KINOMEscan

[23] = target: T23, NDR1 (Homo sapiens, UniProt Q15208)
T23 construct: purchased DiscoveRx KINOMEscan
How it was run: as §1

[24] = target: T24, TRPM6 (Homo sapiens, UniProt Q9BX84)
T24 construct: purchased DiscoveRx KINOMEscan
T24 sequence (Q9BX84 whole entry): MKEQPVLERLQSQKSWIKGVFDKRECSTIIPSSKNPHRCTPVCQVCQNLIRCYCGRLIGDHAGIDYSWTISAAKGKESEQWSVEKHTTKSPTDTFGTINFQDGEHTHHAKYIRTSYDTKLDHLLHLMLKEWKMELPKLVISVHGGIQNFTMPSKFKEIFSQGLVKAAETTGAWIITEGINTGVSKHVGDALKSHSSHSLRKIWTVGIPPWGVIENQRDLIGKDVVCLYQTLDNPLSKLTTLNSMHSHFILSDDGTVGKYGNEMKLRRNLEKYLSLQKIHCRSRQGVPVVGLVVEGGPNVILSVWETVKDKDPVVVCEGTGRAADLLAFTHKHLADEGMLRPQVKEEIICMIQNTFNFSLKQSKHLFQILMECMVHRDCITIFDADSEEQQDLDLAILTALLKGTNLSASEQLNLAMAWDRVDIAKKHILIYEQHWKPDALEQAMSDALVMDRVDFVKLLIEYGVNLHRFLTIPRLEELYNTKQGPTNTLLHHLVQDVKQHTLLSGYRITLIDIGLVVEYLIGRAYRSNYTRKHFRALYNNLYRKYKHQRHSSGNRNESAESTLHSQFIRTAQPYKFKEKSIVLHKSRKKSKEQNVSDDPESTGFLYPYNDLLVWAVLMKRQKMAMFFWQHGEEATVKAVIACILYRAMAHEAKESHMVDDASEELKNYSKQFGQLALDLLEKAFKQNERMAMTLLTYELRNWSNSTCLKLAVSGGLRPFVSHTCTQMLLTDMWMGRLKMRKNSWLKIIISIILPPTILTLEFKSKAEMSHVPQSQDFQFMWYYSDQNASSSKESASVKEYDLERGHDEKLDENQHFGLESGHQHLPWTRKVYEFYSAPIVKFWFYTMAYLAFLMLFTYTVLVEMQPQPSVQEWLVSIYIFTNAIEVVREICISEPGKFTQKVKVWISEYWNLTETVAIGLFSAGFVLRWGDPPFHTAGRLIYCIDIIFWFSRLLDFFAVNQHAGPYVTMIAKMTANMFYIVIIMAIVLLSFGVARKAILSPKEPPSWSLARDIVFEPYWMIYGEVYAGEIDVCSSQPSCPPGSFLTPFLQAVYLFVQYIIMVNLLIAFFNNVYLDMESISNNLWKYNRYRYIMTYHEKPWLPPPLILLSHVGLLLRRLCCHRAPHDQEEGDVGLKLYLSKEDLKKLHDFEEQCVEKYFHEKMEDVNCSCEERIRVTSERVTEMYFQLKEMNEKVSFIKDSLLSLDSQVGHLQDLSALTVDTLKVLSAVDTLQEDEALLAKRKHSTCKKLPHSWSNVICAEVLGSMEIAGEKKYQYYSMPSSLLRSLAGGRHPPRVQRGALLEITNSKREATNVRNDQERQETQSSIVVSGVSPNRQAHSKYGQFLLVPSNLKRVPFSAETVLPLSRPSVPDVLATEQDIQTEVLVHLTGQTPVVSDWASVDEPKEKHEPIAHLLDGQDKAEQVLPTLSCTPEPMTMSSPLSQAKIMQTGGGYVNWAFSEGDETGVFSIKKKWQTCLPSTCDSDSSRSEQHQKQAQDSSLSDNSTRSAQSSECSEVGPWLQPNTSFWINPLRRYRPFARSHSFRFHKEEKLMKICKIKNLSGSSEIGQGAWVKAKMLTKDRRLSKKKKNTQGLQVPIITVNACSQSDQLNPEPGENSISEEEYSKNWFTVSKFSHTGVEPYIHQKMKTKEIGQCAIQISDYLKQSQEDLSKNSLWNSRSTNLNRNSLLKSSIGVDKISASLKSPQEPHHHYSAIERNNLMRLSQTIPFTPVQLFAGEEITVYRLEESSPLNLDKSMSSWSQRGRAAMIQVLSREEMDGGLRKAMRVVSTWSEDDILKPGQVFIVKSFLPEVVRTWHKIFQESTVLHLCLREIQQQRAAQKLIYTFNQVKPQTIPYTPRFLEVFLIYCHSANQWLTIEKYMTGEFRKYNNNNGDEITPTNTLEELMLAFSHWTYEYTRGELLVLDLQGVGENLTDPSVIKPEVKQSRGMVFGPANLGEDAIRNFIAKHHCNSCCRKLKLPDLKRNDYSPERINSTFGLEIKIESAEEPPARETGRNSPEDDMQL
How it was run: as §1

[25] = target: T25, FRK (Homo sapiens, UniProt P42685)
T25 construct: purchased DiscoveRx KINOMEscan
How it was run: as §1

[26] = target: T26, CDK5 (Homo sapiens, UniProt Q00535)
T26 construct: purchased DiscoveRx KINOMEscan
How it was run: as §1

[27] = target: T27, p38-gamma (Homo sapiens, UniProt P53778)
T27 construct: purchased DiscoveRx KINOMEscan
How it was run: as §1

[28] = target: T28, PKAC-beta (Homo sapiens, UniProt P22694)
T28 construct: purchased DiscoveRx KINOMEscan
How it was run: as §1

[29] = target: T29, EGFR(L858R,T790M) (Homo sapiens, UniProt P00533, L858R/T790M)
T29 construct: purchased DiscoveRx KINOMEscan

[30] = target: T30, PFCDPK1(P.falciparum) (Plasmodium falciparum, UniProt P62344)
T30 construct: purchased DiscoveRx KINOMEscan
How it was run: as §1

Compound `Cc1ccc(C2=Nc3cccnc3S(=O)(=O)c3ccccc32)cc1` [TBPT, 6-(p-tolyl)benzo[f] pyrido[2,3-b][1,4] thiazepine 11,11-dioxide] has a remaining binding at 5 µM ([1]; 5 μM) of 100%, a remaining binding at 10 µM ([1]; 10 μM) of 86% and a remaining binding at 5 µM ([2]; 5 μM) of 84%. It also gave a remaining binding at 10 µM ([2]; 10 μM) of 96%, a remaining binding at 5 µM ([3]; 5 μM) of 92% and a remaining binding at 10 µM ([3]; 10 μM) of 92%. It also gave a remaining binding at 5 µM ([4]; 5 μM) of 76%, a remaining binding at 10 µM ([4]; 10 μM) of 100% and a remaining binding at 5 µM ([5]; 5 μM) of 100%. It also gave a remaining binding at 10 µM ([5]; 10 μM) of 100%, a remaining binding at 5 µM ([6]; 5 μM) of 84% and a remaining binding at 10 µM ([6]; 10 μM) of 98%. It also gave a remaining binding at 5 µM ([7]; 5 μM) of 100%, a remaining binding at 10 µM ([7]; 10 μM) of 99% and a remaining binding at 5 µM ([8]; 5 μM) of 100%. The remaining binding at 10 µM ([8]; 10 μM) was 96%, the remaining binding at 5 µM ([9]; 5 μM) was 100% and the remaining binding at 10 µM ([9]; 10 μM) was 88%. For the same compound, the remaining binding at 5 µM ([10]; 5 μM) was 83%, the remaining binding at 10 µM ([10]; 10 μM) was 100% and the remaining binding at 5 µM ([11]; 5 μM) was 82%. The remaining binding at 10 µM ([11]; 10 μM) was 100%, the remaining binding at 5 µM ([12]; 5 μM) was 100% and the remaining binding at 10 µM ([12]; 10 μM) was 85%. It also gave a remaining binding at 5 µM ([13]; 5 μM) of 82%, a remaining binding at 10 µM ([13]; 10 μM) of 100% and a remaining binding at 5 µM ([14]; 5 μM) of 63%. For the same compound, the remaining binding at 10 µM ([14]; 10 μM) was 99%, the remaining binding at 5 µM ([15]; 5 μM) was 87% and the remaining binding at 10 µM ([15]; 10 μM) was 100%. It also gave a remaining binding at 5 µM ([16]; 5 μM) of 100%, a remaining binding at 10 µM ([16]; 10 μM) of 95% and a remaining binding at 5 µM ([17]; 5 μM) of 100%. The remaining binding at 10 µM ([17]; 10 μM) was 100%, the remaining binding at 5 µM ([18]; 5 μM) was 100% and the remaining binding at 10 µM ([18]; 10 μM) was 89%. It also gave a remaining binding at 5 µM ([19]; 5 μM) of 99%, a remaining binding at 10 µM ([19]; 10 μM) of 100% and a remaining binding at 5 µM ([20]; 5 μM) of 100%. For the same compound, the remaining binding at 10 µM ([20]; 10 μM) was 100%, the remaining binding at 5 µM ([21]; 5 μM) was 94% and the remaining binding at 10 µM ([21]; 10 μM) was 92%. The remaining binding at 5 µM ([22]; 5 μM) was 98%, the remaining binding at 10 µM ([22]; 10 μM) was 72% and the remaining binding at 5 µM ([23]; 5 μM) was 100%. The remaining binding at 10 µM ([23]; 10 μM) was 87%, the remaining binding at 5 µM ([24]; 5 μM) was 100% and the remaining binding at 10 µM ([24]; 10 μM) was 85%. For the same compound, the remaining binding at 5 µM ([25]; 5 μM) was 100%, the remaining binding at 10 µM ([25]; 10 μM) was 99% and the remaining binding at 5 µM ([26]; 5 μM) was 85%. The remaining binding at 10 µM ([26]; 10 μM) was 98%, the remaining binding at 5 µM ([27]; 5 μM) was 100% and the remaining binding at 10 µM ([27]; 10 μM) was 88%. The remaining binding at 5 µM ([28]; 5 μM) was 96%, the remaining binding at 10 µM ([28]; 10 μM) was 100% and the remaining binding at 5 µM ([29]; 5 μM) was 78%. It also gave a remaining binding at 10 µM ([29]; 10 μM) of 88%, a remaining binding at 5 µM ([30]; 5 μM) of 100% and a remaining binding at 10 µM ([30]; 10 μM) of 100%.
